Experimental data as given in patent US12673104B2, “Cleavable polymer drug conjugates” (RS ARASTIRMA EGITIM DANISMANLIK ILAC SANAYI TICARET ANONIM …, priority 2016, dated 2026).

Assay: Pharmacokinetic study (plasma total DTX)
Format: in vivo
Details: total DTX in plasma
Protocol: PEGMEMA-DTX conjugates having 50 kDa and 85 kDa molecular weight were subjected to pharmacokinetic testing and its pharmacokinetic profile was compared with that of free DTX.
Pharmacokinetic parameters for total DTX were calculated using the plasma total DTX concentration values of polymer drug conjugates and free DTX. Half-life, volume of distribution (VDβ), clearance (CL), and total area under the curve (AUC total) were calculated.
In order to provide similarity the HPMA-GFLG-DTX polymer was prepared without RGDfK targeting group.

SMILES: CC(=O)O[C@@]12CO[C@@H]1C[C@H](O)[C@@]1(C)C(=O)[C@H](O)C3=C(C)[C@@H](OC(=O)[C@H](O)[C@@H](NC(=O)OC(C)(C)C)c4ccccc4)C[C@@](O)([C@@H](OC(=O)c4ccccc4)[C@H]21)C3(C)C [Free DTX, Docetaxel]
- AUC total: 10000 ± 3000 ng·h/mL
- clearance (read-out: CL (clearance) (converted)): 2.34 mL/min
- half-life (read-out: Half Life (β) (converted)): 3.12 ± 0.88 h
- Vd (read-out: VDβ (volume of distribution)): 0.664 ± 0.258 L
